Assay results: patent EP0162422A2, “The novel physiologically active substance foroxymithine, a process and microorganisms for its production and its use as medicament” (MICROBIAL CHEMISTRY RESEARCH FOUNDATION, priority 1984, dated 1985)

How the values were obtained:
[1] = test system: mice; experiment: Acute toxicity studies in mice; type: in vivo; details: 800 mg/kg i.v.
Excerpt: Foroxymithine is therefore a low-toxicity substance.

[2] = test system: spontaneous hypertensive rats (SH rats); experiment: Effect on blood pressure in spontaneous hypertensive rats after oral administration; type: in vivo
Experimental: This Example illustrates the effect of foroxymithine on blood pressure in spontaneous hypertensive rats (SH rate).
SH rats weighing 320 to 358 g were orally administered foroxymithine dihydrate as an aqueous solution at do- see of 12.5, 25 and 50 mg/kg. After the administration, blood pressure was measured at certain time intervals. Changes in blood pressure in the foroxymithine- administered group were compared with those in the control group orally administered distilled water only.

[3] = molecular target: T1, angiotensin I converting enzyme (Bos taurus, UniProt P12820); experiment: Anti-angiotensin I converting enzyme activity (modified Hayakari method, hippuryl-L-histidyl-L-leucine substrate, absorbance at 382 nm); type: biochemical, bovine; details: material from the purification steps of Examples 2 and 3; read-out: angiotensin I converting enzyme inhibitory activity (IC50) (converted)
T1 construct: obtained from a bovine lung and partially purified; from tissue; host or cells: bovine lung
T1 sequence (P12820 29-1306): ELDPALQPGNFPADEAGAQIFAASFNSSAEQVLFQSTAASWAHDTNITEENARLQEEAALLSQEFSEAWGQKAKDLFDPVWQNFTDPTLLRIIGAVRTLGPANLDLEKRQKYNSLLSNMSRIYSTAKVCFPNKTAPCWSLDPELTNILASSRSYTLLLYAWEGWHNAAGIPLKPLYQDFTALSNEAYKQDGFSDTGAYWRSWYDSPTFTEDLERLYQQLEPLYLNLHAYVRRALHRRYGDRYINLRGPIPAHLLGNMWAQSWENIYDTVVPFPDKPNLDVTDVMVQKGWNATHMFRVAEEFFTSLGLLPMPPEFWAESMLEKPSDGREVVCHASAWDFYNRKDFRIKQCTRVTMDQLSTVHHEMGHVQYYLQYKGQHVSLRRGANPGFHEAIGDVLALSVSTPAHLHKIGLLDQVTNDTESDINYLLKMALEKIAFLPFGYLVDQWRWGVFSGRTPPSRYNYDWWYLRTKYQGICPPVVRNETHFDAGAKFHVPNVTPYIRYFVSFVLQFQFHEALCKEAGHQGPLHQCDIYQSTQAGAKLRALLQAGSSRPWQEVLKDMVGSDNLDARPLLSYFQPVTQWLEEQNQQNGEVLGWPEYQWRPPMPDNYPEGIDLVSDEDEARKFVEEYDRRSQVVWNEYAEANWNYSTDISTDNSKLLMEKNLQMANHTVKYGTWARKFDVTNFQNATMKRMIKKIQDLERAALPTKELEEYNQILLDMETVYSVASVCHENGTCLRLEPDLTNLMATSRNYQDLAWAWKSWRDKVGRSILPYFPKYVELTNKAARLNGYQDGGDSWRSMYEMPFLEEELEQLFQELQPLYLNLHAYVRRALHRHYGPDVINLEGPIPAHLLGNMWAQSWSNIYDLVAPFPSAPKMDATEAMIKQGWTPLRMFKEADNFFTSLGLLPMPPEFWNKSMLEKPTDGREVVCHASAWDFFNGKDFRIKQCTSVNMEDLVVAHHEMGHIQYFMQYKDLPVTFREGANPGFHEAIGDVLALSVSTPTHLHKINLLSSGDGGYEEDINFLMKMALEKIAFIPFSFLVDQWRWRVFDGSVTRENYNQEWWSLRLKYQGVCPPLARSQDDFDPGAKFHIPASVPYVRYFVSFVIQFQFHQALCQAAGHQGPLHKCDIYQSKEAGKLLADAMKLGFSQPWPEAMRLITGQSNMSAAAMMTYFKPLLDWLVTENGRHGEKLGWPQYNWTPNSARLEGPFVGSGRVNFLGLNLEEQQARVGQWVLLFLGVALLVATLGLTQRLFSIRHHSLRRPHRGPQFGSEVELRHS
Experimental: Follow-up of foroxymithine during the cultivation step and the purification step was performed in accordance with the determination of anti-angiotensin I converting enzyme activity by the method to be described below.
Anti-angiotensin I converting enzyme activity was determined by a modification of the angiotensin I converting enzyme determination technique described in M. Hayakari et al., Analytical Biochemistry Vol. 84, pages 361-369 (1978). Hippuryl-L-histidyl-L-leucine as a substrate was dissolved at a concentration of 5 mg/ml in Tris-hydrochloride buffer (0.5M, pH 8.0) containing 0.3M sodium chloride. 0.40 ml of a solution containing a test material was added to 0.05 ml of the resulting solution. The mixture was heated at 37'C for 3 minutes. Then, 0.05 ml of a solution containing angiotensin I converting enzyme that had been obtained from a bovine lung and partially purified was added, and the mixture was reacted for 30 minutes at 37.C. […] After the system was allowed to stand for 15 minutes at room temperature, its absorbance (termed absorbance (a)) at 382 nm was measure. […] The reaction system as the control was measured for absorbance, which was termed absorbance (b). The angiotensin I converting enzyme inhibition rate (%) was calculated from the equation (b-a)/b x 100. […]

[4] = oral dose 12.5 mg/kg, 1 hour after administration
[5] = oral dose 12.5 mg/kg, 3 hours after administration
[6] = oral dose 12.5 mg/kg, 6 hours after administration
[7] = oral dose 12.5 mg/kg, 24 hours after administration
[8] = oral dose 50.0 mg/kg, 1 hour after administration
[9] = oral dose 50.0 mg/kg, 3 hours after administration
[10] = oral dose 50.0 mg/kg, 6 hours after administration
[11] = oral dose 50.0 mg/kg, 24 hours after administration

CC(=O)NC(CCCN(O)C=O)C(=O)NC(CO)C(=O)N(O)CCCC1NC(=O)C(CCCN(O)C=O)NC1=O (stereo not drawn) [Foroxymithine dihydrate, foroxymithine]
deaths (acute toxicity) [1]: no deaths
Mean blood pressure ± S.D. [2, 4]: 180 ± 0.7 mmHg
decrease in blood pressure [2, 4]: 14.3%
Mean blood pressure ± S.D. [2, 5]: 190 ± 28.2 mmHg
decrease in blood pressure [2, 5]: 9.5%
Mean blood pressure ± S.D. [2, 6]: 200 ± 14.1 mmHg
decrease in blood pressure [2, 6]: 4.8%
Mean blood pressure ± S.D. [2, 7]: 210 ± 14.1 mmHg
decrease in blood pressure [2, 7]: 0%
Mean blood pressure ± S.D. ([2]; oral dose 12.5 mg/kg, before administration): 210 ± 0.7 mmHg
Mean blood pressure ± S.D. [2, 8]: 160 ± 7.0 mmHg
decrease in blood pressure [2, 8]: 23.8%
Mean blood pressure ± S.D. [2, 9]: 153 ± 3.5 mmHg
decrease in blood pressure [2, 9]: 27.1%
Mean blood pressure ± S.D. [2, 10]: 193 ± 10.6 mmHg
decrease in blood pressure [2, 10]: 8.1%
Mean blood pressure ± S.D. [2, 11]: 213 ± 3.5 mmHg
decrease in blood pressure [2, 11]: -1.4%
Mean blood pressure ± S.D. ([2]; oral dose 50.0 mg/kg, before administration): 210 ± 0.0 mmHg
effect on blood pressure ([2]; spontaneous hypertensive rats (SH rats), oral, conclusion in words): lower blood pressure
IC50 [3]: 12.2 µM
